Test: xn = mol fraction of the nth substance listed

[Br-].[Na+] + O
viscosity [mPa·s]
Conditions | 100 kPa | 101.3 kPa
293.15 K, x1 = 0.0009 | – | 1.005
293.15 K, x1 = 0.0018 | – | 1.007
293.15 K, x1 = 0.00893 | – | 1.027
293.15 K, x1 = 0.0177 | – | 1.055
293.15 K, x1 = 0.03478 | – | 1.131
293.15 K, x1 = 0.05127 | – | 1.235
293.15 K, x1 = 0.06722 | – | 1.368
293.15 K, x1 = 0.09755 | – | 1.746
293.15 K, x1 = 0.126 | – | 2.317
298.15 K, x1 = 0.00088 | 0.8936 | –
298.15 K, x1 = 0.0009 | – | 0.8935
298.15 K, x1 = 0.0018 | – | 0.8956
298.15 K, x1 = 0.00351 | 0.895 | –
298.15 K, x1 = 0.00368 | 0.9007 | –
298.15 K, x1 = 0.00829 | 0.9176 | –
298.15 K, x1 = 0.00879 | 0.9099 | –
298.15 K, x1 = 0.00893 | – | 0.9162
298.15 K, x1 = 0.0101 | 0.9211 | –
298.15 K, x1 = 0.0146 | 0.9363 | –
298.15 K, x1 = 0.0177 | 0.9479 | 0.9443
298.15 K, x1 = 0.01952 | 0.9523 | –
298.15 K, x1 = 0.02624 | 0.9808 | –
298.15 K, x1 = 0.03478 | – | 1.016
298.15 K, x1 = 0.03489 | 1.022 | –
298.15 K, x1 = 0.04115 | 1.054 | –
298.15 K, x1 = 0.05064 | 1.112 | –
298.15 K, x1 = 0.05127 | – | 1.111
298.15 K, x1 = 0.05382 | 1.186 | –
298.15 K, x1 = 0.06722 | – | 1.231
298.15 K, x1 = 0.08817 | 1.474 | –
298.15 K, x1 = 0.09755 | – | 1.563
298.15 K, x1 = 0.126 | – | 2.052
303.15 K, x1 = 0.0009 | – | 0.8006
303.15 K, x1 = 0.0018 | – | 0.803
303.15 K, x1 = 0.00893 | – | 0.824
303.15 K, x1 = 0.0177 | – | 0.8517
303.15 K, x1 = 0.03478 | – | 0.9187
303.15 K, x1 = 0.05127 | – | 1.006
303.15 K, x1 = 0.06722 | – | 1.114
303.15 K, x1 = 0.09755 | – | 1.407
303.15 K, x1 = 0.126 | – | 1.833
303.74 K, x1 = 0.03489 | 0.9102 | –
303.75 K, x1 = 0.05064 | 0.9936 | –
303.86 K, x1 = 0.04115 | 0.9393 | –
306.42 K, x1 = 0.00829 | 0.7716 | –
308.15 K, x1 = 0.0009 | – | 0.7225
308.15 K, x1 = 0.0018 | – | 0.7249
308.15 K, x1 = 0.00893 | – | 0.7458
308.15 K, x1 = 0.0177 | – | 0.7722
308.15 K, x1 = 0.03478 | – | 0.8359
308.15 K, x1 = 0.05127 | – | 0.9163
308.15 K, x1 = 0.06722 | – | 1.014
308.15 K, x1 = 0.09755 | – | 1.277
308.15 K, x1 = 0.126 | – | 1.649
308.44 K, x1 = 0.01952 | 0.7804 | –
308.74 K, x1 = 0.00088 | 0.7144 | –
308.75 K, x1 = 0.02624 | 0.7947 | –
308.94 K, x1 = 0.0146 | 0.7534 | –
309.24 K, x1 = 0.0101 | 0.7342 | –
310.75 K, x1 = 0.05064 | 0.8742 | –
311.42 K, x1 = 0.04115 | 0.8205 | –
311.74 K, x1 = 0.00368 | 0.6805 | –
313.15 K, x1 = 0.0009 | – | 0.6562
313.15 K, x1 = 0.0018 | – | 0.6587
313.15 K, x1 = 0.00893 | – | 0.679
313.15 K, x1 = 0.0177 | – | 0.7046
313.15 K, x1 = 0.03478 | – | 0.7648
313.15 K, x1 = 0.05127 | – | 0.8392
313.15 K, x1 = 0.06722 | – | 0.929
313.15 K, x1 = 0.09755 | – | 1.165
313.15 K, x1 = 0.126 | – | 1.494
318.15 K, x1 = 0.0009 | – | 0.5992
318.15 K, x1 = 0.0018 | – | 0.6017
318.15 K, x1 = 0.00893 | – | 0.6213
318.15 K, x1 = 0.0177 | – | 0.646
318.15 K, x1 = 0.03478 | – | 0.7032
318.15 K, x1 = 0.05127 | – | 0.7724
318.15 K, x1 = 0.06722 | – | 0.855
318.15 K, x1 = 0.09755 | – | 1.069
318.15 K, x1 = 0.126 | – | 1.363
323.02 K, x1 = 0.00088 | 0.5507 | –
323.15 K, x1 = 0.0009 | – | 0.5496
323.15 K, x1 = 0.0018 | – | 0.5519
323.15 K, x1 = 0.00351 | 0.5505 | –
323.15 K, x1 = 0.00879 | 0.5603 | –
323.15 K, x1 = 0.00893 | – | 0.5708
323.15 K, x1 = 0.0177 | 0.5834 | 0.5948
323.15 K, x1 = 0.03478 | – | 0.6489
323.15 K, x1 = 0.05127 | – | 0.7136
323.15 K, x1 = 0.05382 | 0.7427 | –
323.15 K, x1 = 0.06722 | – | 0.7896
323.15 K, x1 = 0.08817 | 0.9292 | –
323.15 K, x1 = 0.09755 | – | 0.9845
323.15 K, x1 = 0.126 | – | 1.248

— the CheMixHub viscosity set
